Values of other authors, collected in patent US20230364135A1, “GUT-SELECTIVE SEQUESTERING AGENTS FOR THE TREATMENT AND PREVENTION OF AUTISM AND RELATED DISORDERS” (Axial Biotherapeutics, Inc., priority 2017, published 2023).

Test system: naïve, wild-type mice
Conditions: single bolus injection intraperitoneally

symptoms of anxiety: engendered symptoms of anxiety
Structure (SMILES): CCc1ccc(OS(=O)(=O)[O-])cc1.[K+] [4-EPS, 4-ethylphenylsulfate]
core symptoms of autism spectrum disorder: did not engender any core symptoms of autism spectrum disorder
